Test results from PubChem BioAssay (NCI).
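Interpolation was linear, between the two tested concentrations surrounding the appropriate level; five concentrations were tested over 48 hours in 96-well plates. The concentration for 50% growth inhibition is given as GI50. TGI: total growth inhibition.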

What was measured:
Assay in all cases: DTP human tumour cell line panel, 48 h
MDA-MB-435 = test system: MDA-MB-435
U251 CNS = test system: U251 CNS
HS 578T breast = test system: HS 578T breast
SF-295 CNS = test system: SF-295 CNS
OVCAR-4 ovarian = test system: OVCAR-4 ovarian
MALME-3M melanoma = test system: MALME-3M melanoma
IGROV1 ovarian = test system: IGROV1 ovarian
UACC-257 melanoma = test system: UACC-257 melanoma
NCI-H522 lung = test system: NCI-H522 lung
SNB-75 CNS = test system: SNB-75 CNS
SN12C renal = test system: SN12C renal
HCT-15 colon = test system: HCT-15 colon
SK-OV-3 ovarian = test system: SK-OV-3 ovarian
SF-539 CNS = test system: SF-539 CNS
HCC-2998 colon = test system: HCC-2998 colon
T-47D breast = test system: T-47D breast
NCI-H226 lung = test system: NCI-H226 lung
MOLT-4 leukemia = test system: MOLT-4 leukemia
SK-MEL-5 melanoma = test system: SK-MEL-5 melanoma
NCI/ADR-RES ovarian = test system: NCI/ADR-RES ovarian
786-0 renal = test system: 786-0 renal
CCRF-CEM leukemia = test system: CCRF-CEM leukemia
CAKI-1 renal = test system: CAKI-1 renal
TK-10 renal = test system: TK-10 renal
UACC-62 melanoma = test system: UACC-62 melanoma
DU-145 prostate = test system: DU-145 prostate
HL-60(TB) leukemia = test system: HL-60(TB) leukemia
K-562 leukemia = test system: K-562 leukemia
MCF7 breast = test system: MCF7 breast
SK-MEL-28 melanoma = test system: SK-MEL-28 melanoma
HOP-92 NSCLC = test system: HOP-92 NSCLC
EKVX NSCLC = test system: EKVX NSCLC
BT-549 breast = test system: BT-549 breast
KM12 colon = test system: KM12 colon
SR leukemia = test system: SR leukemia
OVCAR-3 ovarian = test system: OVCAR-3 ovarian
HCT-116 colon = test system: HCT-116 colon
OVCAR-5 ovarian = test system: OVCAR-5 ovarian
PC-3 prostate = test system: PC-3 prostate
M14 melanoma = test system: M14 melanoma
A498 renal = test system: A498 renal
SNB-19 CNS = test system: SNB-19 CNS
SF-268 CNS = test system: SF-268 CNS
MDA-MB-231 breast = test system: MDA-MB-231 breast
COLO 205 colon = test system: COLO 205 colon
HT29 colon = test system: HT29 colon
A549 NSCLC = test system: A549 NSCLC
UO-31 renal = test system: UO-31 renal
RXF 393 renal = test system: RXF 393 renal
HOP-62 NSCLC = test system: HOP-62 NSCLC
SK-MEL-2 melanoma = test system: SK-MEL-2 melanoma
NCI-H460 lung = test system: NCI-H460 lung
ACHN renal = test system: ACHN renal
RPMI-8226 leukemia = test system: RPMI-8226 leukemia
SW-620 colon = test system: SW-620 colon

COC(=O)c1cccc(NC2=C(Cl)C(=O)c3nc(C)ccc3C2=O)c1 was tested, and the GI50 (MDA-MB-435) was 2.04 µM, the TGI (MDA-MB-435) was 4.29 µM and the GI50 (U251 CNS) was 3.27 µM. It also gave a TGI (U251 CNS) of 11.8 µM, a GI50 (HS 578T breast) of 2.46 µM and a TGI (HS 578T breast) of 6.26 µM. The GI50 (SF-295 CNS) was 15.8 µM, the TGI (SF-295 CNS) was 29.9 µM and the GI50 (OVCAR-4 ovarian) was 1.42 µM. The TGI (OVCAR-4 ovarian) was 2.89 µM, the GI50 (MALME-3M melanoma) was 1.95 µM and the TGI (MALME-3M melanoma) was 3.76 µM. For the same compound, the GI50 (IGROV1 ovarian) was 1.98 µM, the TGI (IGROV1 ovarian) was 3.89 µM and the GI50 (UACC-257 melanoma) was 1.57 µM. It also gave a TGI (UACC-257 melanoma) of 3 µM, a GI50 (NCI-H522 lung) of 1.89 µM and a TGI (NCI-H522 lung) of 4.46 µM. The GI50 (SNB-75 CNS) was 13.2 µM, the TGI (SNB-75 CNS) was 26.2 µM and the GI50 (SN12C renal) was 2.13 µM. The TGI (SN12C renal) was 5.4 µM, the GI50 (HCT-15 colon) was 1.54 µM and the TGI (HCT-15 colon) was 3.33 µM. The GI50 (SK-OV-3 ovarian) was 12.5 µM, the TGI (SK-OV-3 ovarian) was 25.2 µM and the GI50 (SF-539 CNS) was 1.75 µM. The TGI (SF-539 CNS) was 3.27 µM, the GI50 (HCC-2998 colon) was 2.21 µM and the TGI (HCC-2998 colon) was 4.8 µM. It also gave a GI50 (T-47D breast) of 2.04 µM, a TGI (T-47D breast) of 5.02 µM and a GI50 (NCI-H226 lung) of 2.02 µM. It also gave a TGI (NCI-H226 lung) of 4.39 µM, a GI50 (MOLT-4 leukemia) of 2.53 µM and a TGI (MOLT-4 leukemia) of 5.68 µM. For the same compound, the GI50 (SK-MEL-5 melanoma) was 1.8 µM, the TGI (SK-MEL-5 melanoma) was 3.34 µM and the GI50 (NCI/ADR-RES ovarian) was 2.25 µM. For the same compound, the TGI (NCI/ADR-RES ovarian) was 6.28 µM, the GI50 (786-0 renal) was 1.86 µM and the TGI (786-0 renal) was 3.66 µM. It also gave a GI50 (CCRF-CEM leukemia) of 2.01 µM, a TGI (CCRF-CEM leukemia) of 5.48 µM and a GI50 (CAKI-1 renal) of 1.71 µM. It also gave a TGI (CAKI-1 renal) of 3.28 µM, a GI50 (TK-10 renal) of 1.78 µM and a TGI (TK-10 renal) of 3.19 µM. For the same compound, the GI50 (UACC-62 melanoma) was 2.62 µM, the TGI (UACC-62 melanoma) was 8.1 µM and the GI50 (DU-145 prostate) was 1.86 µM. For the same compound, the TGI (DU-145 prostate) was 3.39 µM, the GI50 (HL-60(TB) leukemia) was 1.53 µM and the TGI (HL-60(TB) leukemia) was 3.64 µM. It also gave a GI50 (K-562 leukemia) of 0.976 µM, a TGI (K-562 leukemia) of 3.94 µM and a GI50 (MCF7 breast) of 1.89 µM. The TGI (MCF7 breast) was 4.61 µM, the GI50 (SK-MEL-28 melanoma) was 1.96 µM and the TGI (SK-MEL-28 melanoma) was 3.71 µM. The GI50 (HOP-92 NSCLC) was 1.92 µM, the TGI (HOP-92 NSCLC) was 3.95 µM and the GI50 (EKVX NSCLC) was 1.77 µM. It also gave a TGI (EKVX NSCLC) of 3.6 µM, a GI50 (BT-549 breast) of 1.68 µM and a TGI (BT-549 breast) of 3.09 µM. The GI50 (KM12 colon) was 13.3 µM, the TGI (KM12 colon) was 29.4 µM and the GI50 (SR leukemia) was 1.83 µM. For the same compound, the TGI (SR leukemia) was 4.62 µM, the GI50 (OVCAR-3 ovarian) was 1.59 µM and the TGI (OVCAR-3 ovarian) was 3.03 µM. The GI50 (HCT-116 colon) was 1.6 µM, the TGI (HCT-116 colon) was 3.32 µM and the GI50 (OVCAR-5 ovarian) was 3.14 µM. The TGI (OVCAR-5 ovarian) was 14.7 µM, the GI50 (PC-3 prostate) was 2.8 µM and the TGI (PC-3 prostate) was 10.3 µM. The GI50 (M14 melanoma) was 1.84 µM, the TGI (M14 melanoma) was 3.42 µM and the GI50 (A498 renal) was 12 µM. It also gave a TGI (A498 renal) of 24.6 µM, a GI50 (SNB-19 CNS) of 10.8 µM and a TGI (SNB-19 CNS) greater than 100 µM. The GI50 (SF-268 CNS) was 2.76 µM, the TGI (SF-268 CNS) was 9.59 µM and the GI50 (MDA-MB-231 breast) was 2.15 µM. The TGI (MDA-MB-231 breast) was 5.08 µM, the GI50 (COLO 205 colon) was 1.77 µM and the TGI (COLO 205 colon) was 3.76 µM. It also gave a GI50 (HT29 colon) of 2.32 µM, a TGI (HT29 colon) of 6.09 µM and a GI50 (A549 NSCLC) of 18.1 µM. It also gave a TGI (A549 NSCLC) of 37.9 µM, a GI50 (UO-31 renal) of 1.44 µM and a TGI (UO-31 renal) of 2.79 µM. The GI50 (RXF 393 renal) was 1.57 µM, the TGI (RXF 393 renal) was 2.94 µM and the GI50 (HOP-62 NSCLC) was 15.1 µM. It also gave a TGI (HOP-62 NSCLC) of 29.6 µM, a GI50 (SK-MEL-2 melanoma) of 2.27 µM and a TGI (SK-MEL-2 melanoma) of 6.48 µM. It also gave a GI50 (NCI-H460 lung) of 18.5 µM, a TGI (NCI-H460 lung) of 41.5 µM and a GI50 (ACHN renal) of 1.78 µM. The TGI (ACHN renal) was 3.4 µM, the GI50 (RPMI-8226 leukemia) was 2.14 µM and the TGI (RPMI-8226 leukemia) was 6 µM. For the same compound, the GI50 (SW-620 colon) was 1.97 µM and the TGI (SW-620 colon) was 4.03 µM.
